According to PubChem BioAssay (NCI):
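The compound was tested at five concentrations on cells cultured in 96-well plates, with a 48-hour exposure period. GI50: concentration for 50% inhibition of growth. The concentration for full growth arrest is given as TGI.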

How the values were obtained:
Test in all cases: NCI tumour cell line growth inhibition, 48 h
[1] = test system: 786-0 renal
[2] = test system: A498 renal
[3] = test system: A549 NSCLC
[4] = test system: ACHN renal
[5] = test system: BT-549 breast
[6] = test system: CAKI-1 renal
[7] = test system: CCRF-CEM leukemia
[8] = test system: COLO 205 colon
[9] = test system: DU-145 prostate
[10] = test system: EKVX NSCLC
[11] = test system: HCC-2998 colon
[12] = test system: HCT-116 colon
[13] = test system: HCT-15 colon
[14] = test system: HL-60(TB) leukemia
[15] = test system: HOP-62 NSCLC
[16] = test system: HOP-92 NSCLC
[17] = test system: HS 578T breast
[18] = test system: HT29 colon
[19] = test system: IGROV1 ovarian
[20] = test system: K-562 leukemia
[21] = test system: KM12 colon
[22] = test system: LOX IMVI melanoma
[23] = test system: M14 melanoma
[24] = test system: MALME-3M melanoma
[25] = test system: MCF7 breast
[26] = test system: MDA-MB-231 breast
[27] = test system: MDA-MB-435
[28] = test system: MDA-MB-468 breast
[29] = test system: MOLT-4 leukemia
[30] = test system: NCI-H226 lung
[31] = test system: NCI-H23 lung
[32] = test system: NCI-H460 lung
[33] = test system: NCI-H522 lung
[34] = test system: NCI/ADR-RES ovarian
[35] = test system: OVCAR-3 ovarian
[36] = test system: OVCAR-4 ovarian
[37] = test system: OVCAR-5 ovarian
[38] = test system: OVCAR-8 ovarian
[39] = test system: PC-3 prostate
[40] = test system: RPMI-8226 leukemia
[41] = test system: RXF 393 renal
[42] = test system: SF-268 CNS
[43] = test system: SF-295 CNS
[44] = test system: SF-539 CNS
[45] = test system: SK-MEL-2 melanoma
[46] = test system: SK-MEL-28 melanoma
[47] = test system: SK-MEL-5 melanoma
[48] = test system: SK-OV-3 ovarian
[49] = test system: SN12C renal
[50] = test system: SNB-19 CNS
[51] = test system: SNB-75 CNS
[52] = test system: SR leukemia
[53] = test system: SW-620 colon
[54] = test system: T-47D breast
[55] = test system: TK-10 renal
[56] = test system: U251 CNS
[57] = test system: UACC-257 melanoma
[58] = test system: UACC-62 melanoma
[59] = test system: UO-31 renal

CC(=O)Nc1nc(-c2ccc(N3CCN(C)CC3)c(NS(=O)(=O)c3ccc(C(F)(F)F)cc3)c2)cs1
GI50 [1]: 5.18 µM
TGI [1]: 12.6 µM
GI50 [2]: 6.64 µM
TGI [2]: 13.5 µM
GI50 [3]: 7.24 µM
TGI [3]: 16.3 µM
GI50 [4]: 4.67 µM
TGI [4]: 11.1 µM
GI50 [5]: 5.83 µM
TGI [5]: 12.8 µM
GI50 [6]: 3.91 µM
TGI [6]: 11 µM
GI50 [7]: 1.97 µM
TGI [7]: 9.86 µM
GI50 [8]: 7.95 µM
TGI [8]: 18.7 µM
GI50 [9]: 6.51 µM
TGI [9]: 14.5 µM
GI50 [10]: 7.41 µM
TGI [10]: 14.5 µM
GI50 [11]: 7.51 µM
TGI [11]: 14.5 µM
GI50 [12]: 3.01 µM
TGI [12]: 11.9 µM
GI50 [13]: 3.18 µM
TGI [13]: 10.8 µM
GI50 [14]: 3.35 µM
TGI [14]: 19.1 µM
GI50 [15]: 9.06 µM
TGI [15]: 17.2 µM
GI50 [16]: 5.34 µM
TGI [16]: 14.1 µM
GI50 [17]: 5.77 µM
TGI [17]: 20.2 µM
GI50 [18]: 4.77 µM
TGI [18]: 16 µM
GI50 [19]: 6.41 µM
TGI [19]: 13 µM
GI50 [20]: 5.47 µM
TGI [20]: 53 µM
GI50 [21]: 7.55 µM
TGI [21]: 16.4 µM
GI50 [22]: 2.46 µM
TGI [22]: 8.87 µM
GI50 [23]: 7.25 µM
TGI [23]: 17.1 µM
GI50 [24]: 6.73 µM
TGI [24]: 13.5 µM
GI50 [25]: 2.58 µM
TGI [25]: 10.6 µM
GI50 [26]: 5.78 µM
TGI [26]: 12.4 µM
GI50 [27]: 4.08 µM
TGI [27]: 12.6 µM
GI50 [28]: 2.04 µM
TGI [28]: 7.95 µM
GI50 [29]: 5.34 µM
TGI [29]: 23.6 µM
GI50 [30]: 8.25 µM
TGI [30]: 19.1 µM
GI50 [31]: 8.11 µM
TGI [31]: 15.8 µM
GI50 [32]: 6.77 µM
TGI [32]: 14.8 µM
GI50 [33]: 3.62 µM
TGI [33]: 10.8 µM
GI50 [34]: 6.97 µM
TGI [34]: 21.6 µM
GI50 [35]: 3.06 µM
TGI [35]: 10.6 µM
GI50 [36]: 6.72 µM
TGI [36]: 14.6 µM
GI50 [37]: 7.63 µM
TGI [37]: 14.7 µM
GI50 [38]: 8.2 µM
TGI [38]: 23.9 µM
GI50 [39]: 6.33 µM
TGI [39]: 17.2 µM
GI50 [40]: 2.16 µM
TGI [40]: 53 µM
GI50 [41]: 2.61 µM
TGI [41]: 9.24 µM
GI50 [42]: 6.99 µM
TGI [42]: 16.4 µM
GI50 [43]: 6.51 µM
TGI [43]: 13.4 µM
GI50 [44]: 4.12 µM
TGI [44]: 10.8 µM
GI50 [45]: 7.27 µM
TGI [45]: 14.4 µM
GI50 [46]: 7.72 µM
TGI [46]: 14.7 µM
GI50 [47]: 6 µM
TGI [47]: 12.5 µM
GI50 [48]: 10 µM
TGI [48]: 19.6 µM
GI50 [49]: 6.19 µM
TGI [49]: 12.7 µM
GI50 [50]: 7.82 µM
TGI [50]: 14.8 µM
GI50 [51]: 2.44 µM
TGI [51]: 9.48 µM
GI50 [52]: 1.98 µM
TGI [52]: 37.6 µM
GI50 [53]: 3.21 µM
TGI [53]: 11.3 µM
GI50 [54]: 4.71 µM
TGI [54]: 13.2 µM
GI50 [55]: 7.04 µM
TGI [55]: 14 µM
GI50 [56]: 7.52 µM
TGI [56]: 15 µM
GI50 [57]: 6.76 µM
TGI [57]: 14 µM
GI50 [58]: 6.08 µM
TGI [58]: 12.6 µM
GI50 [59]: 6.13 µM
TGI [59]: 12.6 µM
